This is an account of results in PMC8826081, “Three-Carbon Linked Dihydroartemisinin-Isatin Hybrids: Design, Synthesis and Their Antiproliferative Anticancer Activity” (Frontiers in Pharmacology, 2022).

The structures appear in SMILES notation. Some results are limits rather than exact numbers.

Data set [1] concerns A549 lung cancer cells. In words: MTT antiproliferative activity against A549. It counts as cell-based. The conditions noted are these: MTT assay, drug-sensitive A549. The text has this:
(§1) 3-(4,5-dimethylthiazol-2-yl)-2,5-diphenyltetrazolium bromide (MTT) assay was used to determined the antiproliferative activity of dihydroartemisinin-isatin hybrids 5a-e and 6a-j with three-carbon linker against A549, multidrug-resistant A549/DOX and A549/DDP lung cancer cell lines as well as cytotoxicity towards normal lung epithelial cell line (BEAS-2B). The inhibitory effects were expressed in terms of half maximal inhibitory concentration (IC50) values.
(§2) A549, A549/DOX, and A549/DDP lung cancer cells (2×10^3) were plated in each well of a 96-well plate and were allowed to adhere and spread for 24 h. The […] were added to a final concentration of 100 µM, and the cells were cultured for 24 h at 37 °C. 3-(4,5-dimethyl-2-thiazolyl)-2,5-diphenyltetrazolium bromide (MTT) solution (10 µL) was added to each well, and the cultures were incubated for an additional 4 h. A further 100 µL of […] was added and incubation continued overnight. The absorbance at 540 nm was determined in each well with a 96-well plate reader. The growth of the treated cells was compared with that of untreated cells.
A general note: Tetrazolium dyes change colour on reduction, which living cells bring about.

The test system of data set [2] is A549/DOX (doxorubicin-resistant A549 cells). In words: MTT antiproliferative activity against doxorubicin-resistant A549. It counts as cell-based. The note with it: for IC50: MTT assay, doxorubicin-resistant A549 cells.
From the text: as §1, §2

The subject of data set [3] is A549/DDP (cisplatin-resistant A549 cells). Description: MTT antiproliferative activity against cisplatin-resistant A549. It counts as cell-based. The conditions noted are these: for IC50: MTT assay, cisplatin-resistant A549 cells.
From the text: as §1, §2

The nature of data set [4]: MTT cytotoxicity towards normal lung epithelial cells. The note with it: human. Here is the method: as §1
(§3) The compounds were dissolved in DMSO with concentrations from 1024 to 1 μg/mL. The NIH/3T3 cells were maintained in culture medium at 37 °C under 5% CO2 atmosphere. Cells were seeded in 96-well plates (1×10^4 cell per well) and allowed to recover for 24 h. After 72 h of exposure, cells were harvested and cell viability was assessed by MTT assay. The CC50 values were calculated by Bliss analysis.

In data set [5] the test system is A549, A549/DOX and A549/DDP lung cancer cell lines. Description: MTT antiproliferative activity, summarised over the three lung cancer cell lines. Type of data set: cell-based. The conditions noted are these: MTT assay, span of values over the three lung cancer cell lines; read-out: IC50 (range over A549, A549/DOX and A549/DDP).
From the text: as §1, §2

The test system of data set [6] is BEAS-2B normal lung epithelial cell line. Description: MTT cytotoxicity towards normal lung epithelial cells. The note with it: IC50(BEAS-2B)/IC50(A549). Here is the method:
as §1, §3

Consider `C[C@@H]1CC[C@H]2[C@@H](C)C(=O)O[C@@H]3O[C@@]4(C)CC[C@@H]1[C@]32OO4` [Artemisinin], for which the IC50 in data set [1] (Homo sapiens), in data set [2] (Homo sapiens), in data set [3] (Homo sapiens), in data set [4] (BEAS-2B normal lung epithelial cells) and in data set [5] was > 100 µM each time.

As to `COc1cccc2c1C(=O)c1c(O)c3c(c(O)c1C2=O)C[C@@](O)(C(=O)CO)C[C@@H]3O[C@H]1C[C@H](N)[C@H](O)[C@H](C)O1` [doxorubicin, reference compound], the IC50 in data set [1] (Homo sapiens) was 4.06 µM; in data set [2] (Homo sapiens), 54.3 µM; in data set [3] (Homo sapiens), 15.1 µM; in data set [4], 93.8 µM; in data set [5], 4.06 to 54.3 µM.

In the case of `C[C@@H]1CC[C@H]2[C@@H](C)C(OCCCN3C(=O)C(=O)c4cc(Cl)ccc43)O[C@@H]3O[C@@]4(C)CC[C@@H]1[C@]32OO4` (stereo partly drawn) [5c, 5-chloro-1-(3-(((3R,5aS,6R,8aS,9R,12R,12aR)-3,6,9-trimethyldecahydro-12H-3,12-epoxy[1,2]dioxepino[4,3-i]isochromen-10-yl)oxy)propyl)indoline-2,3-dione], the IC50 in data set [1] (Homo sapiens) was 53.6 µM; in data set [2] (Homo sapiens) it was 49.7 µM; in data set [3] (Homo sapiens), 79.8 µM; in data set [4], > 100 µM. In addition, the “RI1 (Resistance index: IC50(A549/DOX)/IC50(A549))” value in data set [2] was 0.93. In addition, the “RI2 (Resistance index: IC50(A549/DDP)/IC50(A549))” value in data set [3] came out at 1.49. Moreover, the “SI (Selectivity index: IC50(BEAS-2B)/IC50(A549))” value in data set [6] is listed as >1.8.

`C[C@@H]1CC[C@H]2[C@@H](C)C(OCCCN3C(=O)C(=NNC(N)=S)c4ccccc43)O[C@@H]3O[C@@]4(C)CC[C@@H]1[C@]32OO4` (stereo partly drawn) [6c, 2-(2-oxo-1-(3-(((3R,5aS,6R,8aS,9R,12R,12aR)-3,6,9-trimethyldecahydro-12H-3,12-epoxy[1,2]dioxepino[4,3-i]isochromen-10-yl)oxy)propyl)indolin-3-ylidene)hydrazine-1-carbothioamide]: the IC50 in data set [1] (Homo sapiens) was 23.2 µM; in data set [2] (Homo sapiens), 36.6 µM; in data set [3] (Homo sapiens), 28.8 µM; in data set [4], > 100 µM. Also, the “RI1 (Resistance index: IC50(A549/DOX)/IC50(A549))” value in data set [2] is given as 1.57. The “RI2 (Resistance index: IC50(A549/DDP)/IC50(A549))” value in data set [3] is reported as 1.24. In addition, the “SI (Selectivity index: IC50(BEAS-2B)/IC50(A549))” value in data set [6] was >4.3.

On to `N.N.[Cl][Pt][Cl]` [cisplatin, reference compound], for which the IC50 in data set [1] was 9.38 µM; in data set [2] it was 19.7 µM; in data set [3] it was 66.9 µM; in data set [5] it was 9.38 to 66.9 µM.

For `Cc1ccc2c(c1)C(=NNC(N)=S)C(=O)N2CCCOC1O[C@@H]2O[C@@]3(C)CC[C@H]4[C@H](C)CC[C@@H]([C@H]1C)[C@@]24OO3` (stereo partly drawn) [6h, 2-(5-methyl-2-oxo-1-(3-(((3R,5aS,6R,8aS,9R,12R,12aR)-3,6,9-trimethyldecahydro-12H-3,12-epoxy[1,2]dioxepino[4,3-i]isochromen-10-yl)oxy)propyl)indolin-3-ylidene)hydrazine-1-carbothioamide], the IC50 in data set [1] (Homo sapiens) was 99.6 µM; in data set [2] (Homo sapiens), 87.3 µM; in data set [3] (Homo sapiens), 94.2 µM; in data set [4] it was > 100 µM. Besides, the “RI1 (Resistance index: IC50(A549/DOX)/IC50(A549))” value in data set [2] is given as 0.88. For the same compound, in data set [3], the “RI2 (Resistance index: IC50(A549/DDP)/IC50(A549))” value was found to be 0.95. In addition, in data set [6], the “SI (Selectivity index: IC50(BEAS-2B)/IC50(A549))” value is reported as >1.0.

For `Cc1ccc2c(c1)C(=NO)C(=O)N2CCCOC1O[C@@H]2O[C@@]3(C)CC[C@H]4[C@H](C)CC[C@@H]([C@H]1C)[C@@]24OO3` (stereo partly drawn) [6g, 3-(hydroxyimino)-5-methyl-1-(3-(((3R,5aS,6R,8aS,9R,12R,12aR)-3,6,9-trimethyldecahydro-12H-3,12-epoxy[1,2]dioxepino[4,3-i]isochromen-10-yl)oxy)propyl)indolin-2-one], the IC50 in data set [1] (Homo sapiens) was 55.5 µM; in data set [2] (Homo sapiens), 29.9 µM; in data set [3] (Homo sapiens), 49.7 µM; in data set [4], > 100 µM. Moreover, in data set [2], the “RI1 (Resistance index: IC50(A549/DOX)/IC50(A549))” value stood at 0.54. Besides, the “RI2 (Resistance index: IC50(A549/DDP)/IC50(A549))” value in data set [3] is 0.89. In data set [6], the “SI (Selectivity index: IC50(BEAS-2B)/IC50(A549))” value is on record as >1.8.

As to `COc1ccc2c(c1)C(=NNC(N)=S)C(=O)N2CCCOC1O[C@@H]2O[C@@]3(C)CC[C@H]4[C@H](C)CC[C@@H]([C@H]1C)[C@@]24OO3` (stereo partly drawn) [6j, 2-(5-methoxy-2-oxo-1-(3-(((3R,5aS,6R,8aS,9R,12R,12aR)-3,6,9-trimethyldecahydro-12H-3,12-epoxy[1,2]dioxepino[4,3-i]isochromen-10-yl)oxy)propyl)indolin-3-ylidene)hydrazine-1-carbothioamide], the IC50 in data set [1] (Homo sapiens) was 52.6 µM; in data set [2] (Homo sapiens), 78.5 µM; in data set [3] (Homo sapiens) it was 40.7 µM; in data set [4] it was > 100 µM. Moreover, the “RI2 (Resistance index: IC50(A549/DDP)/IC50(A549))” value in data set [3] was found to be 0.77. Moreover, the “SI (Selectivity index: IC50(BEAS-2B)/IC50(A549))” value in data set [6] is listed as >1.9.

On to `Cc1ccc2c(c1)C(=O)C(=O)N2CCCOC1O[C@@H]2O[C@@]3(C)CC[C@H]4[C@H](C)CC[C@@H]([C@H]1C)[C@@]24OO3` (stereo partly drawn) [5d, 5-methyl-1-(3-(((3R,5aS,6R,8aS,9R,12R,12aR)-3,6,9-trimethyldecahydro-12H-3,12-epoxy[1,2]dioxepino[4,3-i]isochromen-10-yl)oxy)propyl)indoline-2,3-dione], for which the IC50 in data set [1] (Homo sapiens), in data set [2] (Homo sapiens), in data set [3] (Homo sapiens) and in data set [4] was > 100 µM throughout.

Consider `C[C@@H]1CC[C@H]2[C@@H](C)C(OCCCN3C(=O)C(=O)c4cc(F)ccc43)O[C@@H]3O[C@@]4(C)CC[C@@H]1[C@]32OO4` (stereo partly drawn) [5b, 5-fluoro-1-(3-(((3R,5aS,6R,8aS,9R,12R,12aR)-3,6,9-trimethyldecahydro-12H-3,12-epoxy[1,2]dioxepino[4,3-i]isochromen-10-yl)oxy)propyl)indoline-2,3-dione], for which the IC50 in data set [1] (Homo sapiens), in data set [2] (Homo sapiens), in data set [3] (Homo sapiens) and in data set [4] was > 100 µM in each case.

As to `C[C@@H]1CC[C@H]2[C@@H](C)C(OCCCN3C(=O)C(=O)c4ccccc43)O[C@@H]3O[C@@]4(C)CC[C@@H]1[C@]32OO4` (stereo partly drawn) [5a, 1-(3-(((3R,5aS,6R,8aS,9R,12R,12aR)-3,6,9-trimethyldecahydro-12H-3,12-epoxy[1,2]dioxepino[4,3-i]isochromen-10-yl)oxy)propyl)indoline-2,3-dione], the IC50 in data set [1] (Homo sapiens), in data set [2] (Homo sapiens), in data set [3] (Homo sapiens) and in data set [4] was > 100 µM in each case.

As to `C[C@@H]1CC[C@H]2[C@@H](C)C(OCCCN3C(=O)C(=NNC(N)=O)c4cc(F)ccc43)O[C@@H]3O[C@@]4(C)CC[C@@H]1[C@]32OO4` (stereo partly drawn) [6d, 2-(5-fluoro-2-oxo-1-(3-(((3R,5aS,6R,8aS,9R,12R,12aR)-3,6,9-trimethyldecahydro-12H-3,12-epoxy[1,2]dioxepino[4,3-i]isochromen-10-yl)oxy)propyl)indolin-3-ylidene)hydrazine-1-carboxamide], the IC50 in data set [1] (Homo sapiens), in data set [2] (Homo sapiens), in data set [3] (Homo sapiens) and in data set [4] was > 100 µM throughout.

Consider `COc1ccc2c(c1)C(=O)C(=O)N2CCCOC1O[C@@H]2O[C@@]3(C)CC[C@H]4[C@H](C)CC[C@@H]([C@H]1C)[C@@]24OO3` (stereo partly drawn) [5e, 5-methoxy-1-(3-(((3R,5aS,6R,8aS,9R,12R,12aR)-3,6,9-trimethyldecahydro-12H-3,12-epoxy[1,2]dioxepino[4,3-i]isochromen-10-yl)oxy)propyl)indoline-2,3-dione], for which the IC50 in data set [1] (Homo sapiens), in data set [2] (Homo sapiens), in data set [3] (Homo sapiens) and in data set [4] was > 100 µM each time.

Turning to `C[C@@H]1CC[C@H]2[C@@H](C)C(OCCCN3C(=O)C(=NNC(N)=O)c4ccccc43)O[C@@H]3O[C@@]4(C)CC[C@@H]1[C@]32OO4` (stereo partly drawn) [6b, 2-(2-oxo-1-(3-(((3R,5aS,6R,8aS,9R,12R,12aR)-3,6,9-trimethyldecahydro-12H-3,12-epoxy[1,2]dioxepino[4,3-i]isochromen-10-yl)oxy)propyl)indolin-3-ylidene)hydrazine-1-carboxamide], the IC50 in data set [1] (Homo sapiens), in data set [2] (Homo sapiens), in data set [3] (Homo sapiens) and in data set [4] was > 100 µM throughout.
